Where two headings read alike, the source gives them in different places.

Data set [1] can be described thus: Interconversion clearance between 6G and 6S after intravenous administration. It is filed as in vivo, Female Sprague Dawley rats. The conditions noted are these: single i.v. 3 mg/kg; for clearance: female, Sprague-Dawley, rat, plasma, iv. The protocol:
The interconversion between 6G and 6S was determined using previously published methods ([Ebling and Jusko, 1986]; [Prueksaritanont et al., 2005]). The clearance of 6G biotransformed into 6S was calculated as CL12, while the reverse clearance (6S → 6G) was calculated as CL21. The irreversible elimination clearances of 6G and 6S were calculated as CL10 and CL20, respectively. The following equations were used in accordance with the notation provided in Supplementary Table S3. CL12=Dose^shogaol […] CL21=Dose^gingerol […] CL10=Dose^gingerol x AUCshogaolshogaol- Dose^shogaol […] CL20=Dose^shogaol […]- Dose^gingerol […]

Details of data set [2]: method as in Xu et al. (2016) and Jiang et al. (2008). The settings on record: 6G after oral administration in rats; ref Xu et al. (2016) and Jiang et al. (2008); cited from earlier work.
A short description of data set [3]: Pharmacokinetics after single intravenous administration (3 mg/kg), plasma LC-MS/MS. It is filed as in vivo, Female Sprague Dawley rats. The settings on record: female, Sprague-Dawley, rat, iv, plasma analyte after zingerone i.v. 3 mg/kg, mean ± SD n=6. Here is the method: This study is composed of two sections; the first section involves an investigation of the interconversion pharmacokinetics of the pure compounds, and the second focuses on tissue distribution. All rats were transferred to metabolic cages and fasted overnight for at least 10 h. The animals were then randomly divided into four groups (6 rats/group) to receive a single intravenous (i.v.) administration of either 6G, 6S, zingerone, or vehicle via the lateral tail vein at a dosage of 3 mg/kg. After a 7-week washout period, the rats received 30 mg/kg of the same test compounds through a single oral (p.o.) administration. Following each administration, blood samples (300 µL) were collected in heparinized tubes from the lateral tail vein (while rats were under anesthesia with isoflurane) at specified time points: 0.083, 0.25, 0.5, 1, 1.5, 2, 3, 4, 6, 8, and 24 h after administration. An additional 1 mL of blood sample was collected from each rat at pre-dose (0 h) and post-dose (24 h) for clinical laboratory testing and safety evaluation. All heparinized blood samples were initially centrifuged at 5,000 × g, 4 °C, for 10 min. Subsequently, the plasma was carefully transferred to a cryotube as an aliquot sample and then stored at −40 °C until analysis. Urine and feces were collected during the intervals of 0–24 h and 24–48 h post-dosing, and their weights and volumes were documented. All collected urine and feces samples were stored at −40 °C until analysis. Plasma samples were processed through protein precipitation. In brief, 50 µL of plasma was mixed with 200 µL of methanol containing 50 ng/mL of IS (dihydrocapsaicin). The mixtures were vortexed and centrifuged at 14,000 × g at 4 °C for 10 min. The supernatant was filtered through a […] PVDF membrane (Chrome Tech, MN, USA) before analysis. Investigation of glucuronide conjugations followed a previously published method with some modification ([Wang et al., 2017]; [Songvut et al., 2023]). A 50 μL aliquot of plasma, urine, or feces sample was incubated at 37 °C for a minimum of 30 min with 50 μL of β-glucuronidase (3,000 U/mL) in a sodium phosphate buffer (pH 6.8). For sample extraction, 150 μL of methanol containing 50 μg/L of IS was pipetted into the pre-incubated samples. Subsequently, the mixtures were vortexed for 10 min and then centrifuged at 14,000 × g at 4 °C for 10 min. The supernatants were filtered through a […] PVDF membrane (Chrome Tech, MN, United States) and then analyzed using the validated LC-MS/MS method. Quantitative analysis was conducted using liquid chromatography-tandem mass spectrometry (LC-MS/MS) with a Nexera X2 LCMS-8060NX instrument (Shimadzu, Japan). The instrument included a CBM-40lite system controller, CTO-40C column oven, SIL-40C XR autosampler, LC-40D XR solvent pump unit, FCV-DGU-403 degasser, and 20AH2 switching valve. The LC-MS/MS system was operated with a binary pump and equipped with a triple quadrupole mass spectrometer. Pharmacokinetic parameters were assessed using PK Solutions software (version 2.0) with non-compartmental analysis. The AUC was calculated using the Linear-Log Trapezoidal Method. The maximum plasma concentration (Cmax) and time to reach maximum plasma concentration (Tmax) were taken directly from the graph.

Usually clearance stands for the volume of plasma or blood freed of the substance per unit of time. As a reminder, the Tmax is the time at which the peak concentration occurs. For `CCCCC[C@H](O)CC(=O)CCc1ccc(O)c(OC)c1` [[6]-gingerol], the clearance in data set [1] (read-out: CL10 (irreversible elimination clearance of 6G) (converted)) is 8.67 mL/min/kg. Besides, the “CL12 relative to reverse clearance CL21” value in data set [1] was “approximately sevenfold greater”. In addition, the time of peak concentration (Tmax) in data set [2] was 10 min.

As to `CCCCC/C=C/C(=O)CCc1ccc(O)c(OC)c1` [[6]-shogaol], in data set [1] (read-out: CL20 (irreversible elimination clearance of 6S) (converted)), the clearance is 11.3 mL/min/kg.

What is called AUC(0-inf) is the area under the concentration-time curve extrapolated to infinity. In general, AUC(0-t) refers to the area under the concentration-time curve up to a stated or last time point. For the molecule `COc1cc(CCC(C)=O)ccc1O` [zingerone, 4-(4-hydroxy-3-methoxyphenyl)-2-butanone], in data set [3], the AUC(0-inf) is 12600 ng·h/mL and the C0 was determined as 35100 ng/mL. Moreover, in data set [3] (read-out: AUC(0-t)), the AUC(0-t) was 12600 ng·h/mL.

(Values after publication PMC11187260, “Unraveling the interconversion pharmacokinetics and oral bioavailability of the major ginger constituents: [6]-gingerol, [6]-shogaol, and zingerone after single-dose administration in rats” (Frontiers in Pharmacology, 2024).)
